Assay results as given in patent publication US12655104B2, “Anticancer compounds selective for ER-positive cancers” (THE BOARD OF TRUSTEES OF THE UNIVERSITY OF ILLINOIS, priority 2020, dated 2026).
Where two headings read alike, the source gives them in different places.

Experiments:
[1] = system: HT-29; experiment: Alamar blue fluorescence viability (IC50), HT-29; format: cell-based; settings: for IC50: Homo sapiens
Experimental: (§1) Cancer Cell Lines: Culturing Conditions and Validation. All cell lines were cultured at 37° C. with 5% CO2. All ERα-positive cell lines were grown in media lacking phenol red. MCF-7 were grown in EMEM with 10% FBS and 1% penicillin-streptomycin (P/S). T47D were cultured in MEM with 10% FBS and 1% P/S. TYS and TDG cells were grown in MEM supplemented with 10% CD-FBS and 1% P/S. HCT-116 and MDA-MB-231 cells were cultured in RPMI-1640 supplemented with 10% FBS and 1% P/S. MDA-MB-436 cells were cultured in DMEM supplemented with 10% FBS and 1% P/S. HT-29 were cultured in McCoy's media supplemented with 10% FBS and 1% P/S. All cell lines were used directly from ATCC stocks and/or have been further authenticated using PowerPlex16HS Assay (Promega) as described previously.^54 In short, >1 million cells were harvested and lysed using the cell lysis buffer (50 mM Tris, 50 mM EDTA, 25 mM sucrose, 100 mM NaCl, 1% SDS, pH 8). DNA extraction and short tandem repeats (STRs) profiling for each cell line were carried out at the University of Arizona Genetics Core (UAGC). Autosomal STR profiles were compared to reference databases such as ATCC, DSMZ, and JCRB.
(§2) Alamar Blue Fluorescence for Anticancer Activity (IC50). 2,000-15,000 cells per well were seeded a 96-well plate. Cells were allowed to adhere before DMSO stock solutions of test compounds were added to each well with a final concentration of DMSO in each well=1%; final volume: 100 μL. At the end of the desired incubation time (e.g., 24 or 72 hours), media in each well was aspirated and new fresh media (no compound, 100 μL) was added. Alamar blue solution (4 mg resazurin per 40 mL PBS) was then added (10 μL). After 2-6 hours incubation, each well's fluorescence (λexcit.=555 nm, λemission.=585 nm) was measured using a SpectraMax M3 plate reader (Molecular Devices). Percent dead was determined by comparison to a 100% dead control: 100 μM raptinal treated cells. Dose dependent curves and IC50 were calculated using Origin Pro V10.

[2] = Pharmacokinetic (PK) studies in mice; format: in vivo
Experimental: Pharmacokinetic (PK) Studies. […] Mice were then sacrificed in cohorts of 3 at time points (#, #, #). Blood was collected, centrifuged, and plasma separated for quantification of test compound utilizing LC-MS/MS (UIUC Metabolomics Center, Urbana, IL.). Determined compound concentration was then analyzed using non-linear regression programing (WinNonlin) and pharmacokinetic parameters estimated.

[3] = system: MDA-MB-436; experiment: Alamar blue fluorescence viability (IC50), MDA-MB-436; format: cell-based; settings: for IC50: Homo sapiens
Experimental: as §1, §2

[4] = system: CD Sprague Dawley IGS rats; experiment: Maximum tolerated dose (MTD) in rats; format: in vivo; settings: Rat, I.V.
From the text: (§3) Maximum Tolerated Dose (MTD) Experiments in Mice and Rats. […] Rodents were monitored for signs of distress, lethargy, neurotoxicity, and so forth for multiple days after compound administration. […] The MTD was defined as the maximum dose in which any acute side effects observed were tolerated and no lethality observed.

[5] = Maximum tolerated dose (MTD) in rats; format: in vivo; settings: Sprague Dawley, in vivo, iv; Rat, I.V., single dose; read-out: MTD
From the text: as §3

[6] = system: MCF-7 tumors; experiment: MCF-7 orthotopic tumor model; format: in vivo, mice
Experimental: MCF-7 Orthotopic Tumor Model. Nu/J ovariectomized mice (Jackson's lab) were supplemented with a 60-day E2 pellet (0.36 mg, Innovative Research of America) 2-3 days prior to tumor cell inoculation. MCF-7 cells (5×10^6, in 1:1 HBSS:matrigel) were inoculated into the mammary fat pad and allowed to establish and tumors grown to ˜300-400 mm^3 (˜21-28 days to establish). […] Tumor size was measured by caliper, and mouse weights were recorded.

[7] = system: ERα− cancer cell lines; experiment: Selectivity of cell killing, ERα+ versus ERα− cancer cell lines; format: cell-based
Experimental: as §1, §2

[8] = system: MDA-MB-231; experiment: Alamar blue fluorescence viability (IC50), MDA-MB-231; format: cell-based; settings: for IC50: Homo sapiens
Experimental: as §1, §2

[9] = system: T47D; experiment: Alamar blue fluorescence viability (IC50), T47D; format: cell-based; settings: Homo sapiens, 24 h, read-out: IC50 24 hr (μM)
Experimental: as §1, with “DNA extraction and short tandem repeats (STRs) profiling for each cell line were carried out at the University of Arizona Genetics Core (UAGC). Autosomal STR profiles were compared to reference databases such as ATCC, DSMZ, and JCRB.” left out
Alamar Blue Fluorescence for Anticancer Activity (IC50). […] After 2-6 hours incubation, each well's fluorescence (λexcit.=555 nm, λemission.=585 nm) was measured using a SpectraMax M3 plate reader (Molecular Devices). Percent dead was determined by comparison to a 100% dead control: 100 μM raptinal treated cells. Dose dependent curves and IC50 were calculated using Origin Pro V10.

[10] = system: HCT-116; experiment: Alamar blue fluorescence viability (IC50), HCT-116; format: cell-based; settings: for IC50: Homo sapiens
Experimental: as §1, §2

[11] = female, CD-1, mouse, in vivo, iv, I.V. 20 mg/kg

Which “Fold Change” value ([1]; Average Fold Change between 24/72 hr IC50 values for MCF-7 and HT-29) does the source give for O=C1Nc2c(C(F)(F)F)cccc2[C@@]1(c1ccc(O)cc1)N1CCC(F)(F)CC1 (single isomer, unassigned) [ErSO-DFP] here?
The value was 1588.

And the IC50 ([1]; HT-29, 24 h, read-out: IC50 24 hr (μM))?
Its IC50 is 33 ± 4 µM.

And the IC50 ([1]; HT-29, 72 h, read-out: IC50 72 hr (μM))?
The IC50 was 27 ± 4 µM.

And the “AUC ratio ErSO-DFP:ErSO” value ([2]; I.V. 20 mg/kg)?
The value was 0.6.

And the “CL ratio ErSO-DFP:ErSO” value ([2]; I.V. 20 mg/kg)?
The value was 1.6.

What about the “Cmax ratio ErSO-DFP:ErSO” value ([2]; I.V. 20 mg/kg) of the same compound?
The value was 1.9.

What about the “MRT ratio ErSO-DFP:ErSO” value ([2]; I.V. 20 mg/kg) of the same compound?
Its value is 0.2.

What about the “Vss ratio ErSO-DFP:ErSO” value ([2]; I.V. 20 mg/kg) of the same compound?
Its value is 0.3.

What about the “AUC as % of the ErSO value” ([2]; I.V., head-to-head) of the same compound?
The value was ~60%.

And the AUC [2, 11]?
The AUC was 6370 ng·h/mL.

And the Cmax [2, 11]?
Its Cmax is 14700 ng/mL.

And the MRT [2, 11]?
The MRT was 52.8 min.

And the clearance [2, 11]?
The clearance was 52 mL/min/kg.

What about the Vd ([2]; female, CD-1, mouse, in vivo, iv, I.V. 20 mg/kg, read-out: Vss) of the same compound?
The Vd was 2.75 L/kg.

And the bioavailability ([2]; female, CD-1, mouse, in vivo, po, read-out: oral availability F %)?
The bioavailability was 6%.

What about the “Fold Change” value ([3]; Average Fold Change between 24/72 hr IC50 values for MCF-7 and MDA-MB-436) of the same compound?
Its value is 3235.

What about the IC50 ([3]; MDA-MB-436, 24 h, read-out: IC50 24 hr (μM)) of the same compound?
The IC50 was 64 ± 3 µM.

What about the IC50 ([3]; MDA-MB-436, 72 h, read-out: IC50 72 hr (μM)) of the same compound?
The IC50 was 55 ± 9 µM.

And the “Fold Increase Rel. to ErSO (MTD)” value [4]?
Its value is 3.3-5.

And the “MTD” value ([4]; single dose)?
Its value is >50 mg/kg.

What about the MTD [5] of the same compound?
The MTD was > 50 mg/kg.

What about the “mouse weight change during MCF-7 study” value ([6]; I.V. 5 mg/kg once-a-week, three total doses) of the same compound?
Its value is “no significant weight change”.

What about the “antitumor effect on MCF-7 tumors” value ([6]; I.V. 5 mg/kg once-a-week, three total doses, tumors >300 mm^3) of the same compound?
The value was “profound regression of MCF-7 tumors”.

What about the “increase in therapeutic index (TI) relative to ErSO” value ([6]; from efficacy data and head-to-head MTD studies) of the same compound?
Its value is ≥ 5 fold.

What about the “average fold difference between IC50 values of ERα+ and ERα− cancer cell lines” value ([7]; measured at both 24 and 72 hours) of the same compound?
The value was > 2750 fold.

What about the IC50 ([7]; read-out: IC50 in ERα− cell lines) of the same compound?
Its IC50 is > 25 µM.

What about the “Fold Change” value ([8]; Average Fold Change between 24/72 hr IC50 values for MCF-7 and MDA-MB-231) of the same compound?
Its value is 1882.

What about the IC50 ([8]; MDA-MB-231, 24 h, read-out: IC50 24 hr (μM)) of the same compound?
The IC50 was 55 ± 5 µM.

What about the IC50 ([8]; MDA-MB-231, 72 h, read-out: IC50 72 hr (μM)) of the same compound?
The IC50 was 32 ± 4 µM.

And the IC50 [9]?
Its IC50 is 0.016 ± 0.002 µM.

And the “Fold Change” value ([10]; Average Fold Change between 24/72 hr IC50 values for MCF-7 and HCT-116)?
Its value is 3235.

What about the “effects bottom out at (% cell death at lower concentrations)” value ([10]; HCT-116 cells, bottom of IC50 curve) of the same compound?
Its value is ~0%.

What about the IC50 ([10]; HCT-116, 24 h, read-out: IC50 24 hr (μM)) of the same compound?
Its IC50 is 55 µM.

And the IC50 ([10]; HCT-116, 72 h, read-out: IC50 72 hr (μM))?
The IC50 was 55 µM.
